± gives the standard deviation of the averaged measurements.
These compounds were tested on HCI-011.E2 (organoid from an ER-positive breast cancer xenograft) (assay: CTG-3D luminescence at 96 h relative to day-0 seeding control (ratio to day 0); higher = more growth / less cytotoxicity; PDxO 3D drug screen, 96 h, CTG-3D normalised to day-0 seeding control.). Conditions: 625 fM.

Row | Structure (SMILES) | CTG-3D luminescence at 96 h
1 | C[C@H](NC(=O)CCC(F)(F)F)C(=O)N[C@@H]1C(=O)N(CCO)c2ncccc2-c2ccccc21 [crenigacestat] | 1.91 ± 0.4
2 | COc1cccc2c1C(=O)c1c(O)c3c(c(O)c1C2=O)C[C@@](O)(C(=O)CO)C[C@@H]3O[C@H]1C[C@H](N)[C@H](O)[C@H](C)O1 [doxorubicin] | 1.6 ± 0.29
3 | C[C@]12CC[C@@H]3c4ccc(O)cc4C[C@@H](CCCCCCCCC[S+]([O-])CCCC(F)(F)C(F)(F)F)[C@H]3[C@@H]1CC[C@@H]2O (stereo partly specified) [fulvestrant] | 1.62 ± 0.27
4 | Nc1ccn([C@@H]2O[C@H](CO)[C@@H](O)C2(F)F)c(=O)n1 [gemcitabine] | 1.9 ± 0.5
5 | C=CC(=O)N1CCC[C@@H](n2nc(-c3ccc(Oc4ccccc4)cc3)c3c(N)ncnc32)C1 [ibrutinib] | 1.84 ± 0.62
6 | CN(Cc1cnc2nc(N)nc(N)c2n1)c1ccc(C(=O)N[C@@H](CCC(=O)O)C(=O)O)cc1 [methotrexate] | 1.59 ± 0.47
7 | CC1(C)CCC(c2ccc(Cl)cc2)=C(CN2CCN(c3ccc(C(=O)NS(=O)(=O)c4ccc(N[C@H](CCN5CCOCC5)CSc5ccccc5)c(S(=O)(=O)C(F)(F)F)c4)cc3)CC2)C1 [navitoclax] | 1.8 ± 0.25
8 | NC(=O)c1cccc2cn(-c3ccc([C@@H]4CCCNC4)cc3)nc12 [niraparib] | 1.465 ± 0.0099

Same assay, conditions: 625 fM; days in culture: 74

Row | Structure (SMILES) | CTG-3D luminescence at 96 h
9 | C[C@H](NC(=O)CCC(F)(F)F)C(=O)N[C@@H]1C(=O)N(CCO)c2ncccc2-c2ccccc21 [crenigacestat] | 2.02
10 | COc1cccc2c1C(=O)c1c(O)c3c(c(O)c1C2=O)C[C@@](O)(C(=O)CO)C[C@@H]3O[C@H]1C[C@H](N)[C@H](O)[C@H](C)O1 [doxorubicin] | 2.14
11 | C[C@]12CC[C@@H]3c4ccc(O)cc4C[C@@H](CCCCCCCCC[S+]([O-])CCCC(F)(F)C(F)(F)F)[C@H]3[C@@H]1CC[C@@H]2O (stereo partly specified) [fulvestrant] | 2.9
12 | Nc1ccn([C@@H]2O[C@H](CO)[C@@H](O)C2(F)F)c(=O)n1 [gemcitabine] | 2.22
13 | C=CC(=O)N1CCC[C@@H](n2nc(-c3ccc(Oc4ccccc4)cc3)c3c(N)ncnc32)C1 [ibrutinib] | 2.75
14 | CN(Cc1cnc2nc(N)nc(N)c2n1)c1ccc(C(=O)N[C@@H](CCC(=O)O)C(=O)O)cc1 [methotrexate] | 2.17
15 | CC1(C)CCC(c2ccc(Cl)cc2)=C(CN2CCN(c3ccc(C(=O)NS(=O)(=O)c4ccc(N[C@H](CCN5CCOCC5)CSc5ccccc5)c(S(=O)(=O)C(F)(F)F)c4)cc3)CC2)C1 [navitoclax] | 1.84
16 | NC(=O)c1cccc2cn(-c3ccc([C@@H]4CCCNC4)cc3)nc12 [niraparib] | 1.92

What follows are compounds tested on HCI-019 (organoid from a triple-negative breast cancer xenograft) in the same assay as above. Conditions: 12.5 pM; days in culture: 110.

Row | Structure (SMILES) | CTG-3D luminescence at 96 h
17 | C[C@H](NC(=O)CCC(F)(F)F)C(=O)N[C@@H]1C(=O)N(CCO)c2ncccc2-c2ccccc21 [crenigacestat] | 1.5
18 | COc1cccc2c1C(=O)c1c(O)c3c(c(O)c1C2=O)C[C@@](O)(C(=O)CO)C[C@@H]3O[C@H]1C[C@H](N)[C@H](O)[C@H](C)O1 [doxorubicin] | 1.69
19 | C[C@]12CC[C@@H]3c4ccc(O)cc4C[C@@H](CCCCCCCCC[S+]([O-])CCCC(F)(F)C(F)(F)F)[C@H]3[C@@H]1CC[C@@H]2O (stereo partly specified) [fulvestrant] | 2.08
20 | Nc1ccn([C@@H]2O[C@H](CO)[C@@H](O)C2(F)F)c(=O)n1 [gemcitabine] | 1.7
21 | C=CC(=O)N1CCC[C@@H](n2nc(-c3ccc(Oc4ccccc4)cc3)c3c(N)ncnc32)C1 [ibrutinib] | 1.83
22 | CN(Cc1cnc2nc(N)nc(N)c2n1)c1ccc(C(=O)N[C@@H](CCC(=O)O)C(=O)O)cc1 [methotrexate] | 2.05
23 | CC1(C)CCC(c2ccc(Cl)cc2)=C(CN2CCN(c3ccc(C(=O)NS(=O)(=O)c4ccc(N[C@H](CCN5CCOCC5)CSc5ccccc5)c(S(=O)(=O)C(F)(F)F)c4)cc3)CC2)C1 [navitoclax] | 1.8
24 | NC(=O)c1cccc2cn(-c3ccc([C@@H]4CCCNC4)cc3)nc12 [niraparib] | 1.64

Same assay, conditions: 12.5 pM; days in culture: 131

Row | Structure (SMILES) | CTG-3D luminescence at 96 h
25 | C[C@H](NC(=O)CCC(F)(F)F)C(=O)N[C@@H]1C(=O)N(CCO)c2ncccc2-c2ccccc21 [crenigacestat] | 2.19
26 | COc1cccc2c1C(=O)c1c(O)c3c(c(O)c1C2=O)C[C@@](O)(C(=O)CO)C[C@@H]3O[C@H]1C[C@H](N)[C@H](O)[C@H](C)O1 [doxorubicin] | 3.03
27 | C[C@]12CC[C@@H]3c4ccc(O)cc4C[C@@H](CCCCCCCCC[S+]([O-])CCCC(F)(F)C(F)(F)F)[C@H]3[C@@H]1CC[C@@H]2O (stereo partly specified) [fulvestrant] | 2.86
28 | Nc1ccn([C@@H]2O[C@H](CO)[C@@H](O)C2(F)F)c(=O)n1 [gemcitabine] | 2.42
29 | C=CC(=O)N1CCC[C@@H](n2nc(-c3ccc(Oc4ccccc4)cc3)c3c(N)ncnc32)C1 [ibrutinib] | 2.58
30 | CN(Cc1cnc2nc(N)nc(N)c2n1)c1ccc(C(=O)N[C@@H](CCC(=O)O)C(=O)O)cc1 [methotrexate] | 2.79
31 | CC1(C)CCC(c2ccc(Cl)cc2)=C(CN2CCN(c3ccc(C(=O)NS(=O)(=O)c4ccc(N[C@H](CCN5CCOCC5)CSc5ccccc5)c(S(=O)(=O)C(F)(F)F)c4)cc3)CC2)C1 [navitoclax] | 2.39
32 | NC(=O)c1cccc2cn(-c3ccc([C@@H]4CCCNC4)cc3)nc12 [niraparib] | 2.29

Same assay, conditions: 12.5 pM; days in culture: 152

Row | Structure (SMILES) | CTG-3D luminescence at 96 h
33 | C[C@H](NC(=O)CCC(F)(F)F)C(=O)N[C@@H]1C(=O)N(CCO)c2ncccc2-c2ccccc21 [crenigacestat] | 3.73
34 | COc1cccc2c1C(=O)c1c(O)c3c(c(O)c1C2=O)C[C@@](O)(C(=O)CO)C[C@@H]3O[C@H]1C[C@H](N)[C@H](O)[C@H](C)O1 [doxorubicin] | 3.43
35 | C[C@]12CC[C@@H]3c4ccc(O)cc4C[C@@H](CCCCCCCCC[S+]([O-])CCCC(F)(F)C(F)(F)F)[C@H]3[C@@H]1CC[C@@H]2O (stereo partly specified) [fulvestrant] | 2.85
36 | Nc1ccn([C@@H]2O[C@H](CO)[C@@H](O)C2(F)F)c(=O)n1 [gemcitabine] | 2.8
37 | C=CC(=O)N1CCC[C@@H](n2nc(-c3ccc(Oc4ccccc4)cc3)c3c(N)ncnc32)C1 [ibrutinib] | 3.76
38 | CN(Cc1cnc2nc(N)nc(N)c2n1)c1ccc(C(=O)N[C@@H](CCC(=O)O)C(=O)O)cc1 [methotrexate] | 2.67
39 | CC1(C)CCC(c2ccc(Cl)cc2)=C(CN2CCN(c3ccc(C(=O)NS(=O)(=O)c4ccc(N[C@H](CCN5CCOCC5)CSc5ccccc5)c(S(=O)(=O)C(F)(F)F)c4)cc3)CC2)C1 [navitoclax] | 2.86
40 | NC(=O)c1cccc2cn(-c3ccc([C@@H]4CCCNC4)cc3)nc12 [niraparib] | 2.88

Same assay, conditions: 0.00025 µM; days in culture: 110

Row | Structure (SMILES) | CTG-3D luminescence at 96 h
41 | C[C@H](NC(=O)CCC(F)(F)F)C(=O)N[C@@H]1C(=O)N(CCO)c2ncccc2-c2ccccc21 [crenigacestat] | 1.45
42 | COc1cccc2c1C(=O)c1c(O)c3c(c(O)c1C2=O)C[C@@](O)(C(=O)CO)C[C@@H]3O[C@H]1C[C@H](N)[C@H](O)[C@H](C)O1 [doxorubicin] | 1.56
43 | C[C@]12CC[C@@H]3c4ccc(O)cc4C[C@@H](CCCCCCCCC[S+]([O-])CCCC(F)(F)C(F)(F)F)[C@H]3[C@@H]1CC[C@@H]2O (stereo partly specified) [fulvestrant] | 1.72
44 | Nc1ccn([C@@H]2O[C@H](CO)[C@@H](O)C2(F)F)c(=O)n1 [gemcitabine] | 1.3
45 | C=CC(=O)N1CCC[C@@H](n2nc(-c3ccc(Oc4ccccc4)cc3)c3c(N)ncnc32)C1 [ibrutinib] | 0.982
46 | CN(Cc1cnc2nc(N)nc(N)c2n1)c1ccc(C(=O)N[C@@H](CCC(=O)O)C(=O)O)cc1 [methotrexate] | 1.69
47 | CC1(C)CCC(c2ccc(Cl)cc2)=C(CN2CCN(c3ccc(C(=O)NS(=O)(=O)c4ccc(N[C@H](CCN5CCOCC5)CSc5ccccc5)c(S(=O)(=O)C(F)(F)F)c4)cc3)CC2)C1 [navitoclax] | 1.8
48 | NC(=O)c1cccc2cn(-c3ccc([C@@H]4CCCNC4)cc3)nc12 [niraparib] | 1.35

Same assay, conditions: 0.00025 µM; days in culture: 131

Row | Structure (SMILES) | CTG-3D luminescence at 96 h
49 | C[C@H](NC(=O)CCC(F)(F)F)C(=O)N[C@@H]1C(=O)N(CCO)c2ncccc2-c2ccccc21 [crenigacestat] | 3.56
50 | COc1cccc2c1C(=O)c1c(O)c3c(c(O)c1C2=O)C[C@@](O)(C(=O)CO)C[C@@H]3O[C@H]1C[C@H](N)[C@H](O)[C@H](C)O1 [doxorubicin] | 3.8
51 | C[C@]12CC[C@@H]3c4ccc(O)cc4C[C@@H](CCCCCCCCC[S+]([O-])CCCC(F)(F)C(F)(F)F)[C@H]3[C@@H]1CC[C@@H]2O (stereo partly specified) [fulvestrant] | 3.69
52 | Nc1ccn([C@@H]2O[C@H](CO)[C@@H](O)C2(F)F)c(=O)n1 [gemcitabine] | 3.53
53 | C=CC(=O)N1CCC[C@@H](n2nc(-c3ccc(Oc4ccccc4)cc3)c3c(N)ncnc32)C1 [ibrutinib] | 3.79
54 | CN(Cc1cnc2nc(N)nc(N)c2n1)c1ccc(C(=O)N[C@@H](CCC(=O)O)C(=O)O)cc1 [methotrexate] | 3.21
55 | CC1(C)CCC(c2ccc(Cl)cc2)=C(CN2CCN(c3ccc(C(=O)NS(=O)(=O)c4ccc(N[C@H](CCN5CCOCC5)CSc5ccccc5)c(S(=O)(=O)C(F)(F)F)c4)cc3)CC2)C1 [navitoclax] | 3.6
56 | NC(=O)c1cccc2cn(-c3ccc([C@@H]4CCCNC4)cc3)nc12 [niraparib] | 3.06

From the supplement of paper PMC8882468
